Patent US6787569B1, “Therapeutic guanidines” (Cambridge NeuroScience, Inc., priority 1994, dated 2004)
Structures can show the parent of a compound that is named as a salt. Where two headings read alike, the source gives them in different places.

Assays:
[1] = tested on: depolarization-induced 3H-glutamate release from brain nerve terminals; experiment: Inhibition of 3H-glutamate release, high [K+] depolarization, rapid superfusion of synaptosomes; assay type: biochemical; details: rat brain synaptosomes; for % Inhibition of ^3H-Glu Rel @ 3 μM: 3 μM compound; for % Inhibition of ^3H-Glu Rel @ 1 μM: 1 μM compound
[2] = tested on: veratridine-induced 3H-glutamate release from brain nerve terminals (voltage-activated presynaptic Na channels); experiment: Inhibition of veratridine-induced 3H-glutamate release, rapid superfusion of synaptosomes; assay type: biochemical, rat; details: for % Inhibition of ^3H-Glu Rel @ 1 μM (*veratridine-induced glutamate release assay): 1 μM compound
L-type Ca channels = experiment: Inhibition of 45Ca uptake through L-type (dihydropyridine-sensitive) calcium channels in GH4C1 pituitary cells; assay type: cell-based
Description: Compounds of the invention representative of each of the major classes of agents claimed herein were tested to determine their ability to inhibit voltage-activated, dihydropyridine-sensitive L-type calcium channels in clonal GH4C1 pituitary cells. Said voltage-activated L-type calcium channels are found in cardiac muscle, vascular smooth muscle, and the cardiac Purkije cell conduction system. They are the sites of action of the major classes of Ca antagonists employed to treat hypertension, angina, cardiac arrhythmias, and related disorders. L-type Ca channels are also the sites of action of certain neuroprotective dihydropyridine Ca antagonists such as nimodipine.
The uptake of ^45Ca into GH4C1 cells was performed by an adaptation of the method of Tan, K. et al. (J. Biol. Chem., 259:418-426 (1984)). The principle of the method involves activating ion permeation through synaptosomal calcium channels by high K^+-induced depolarization of the synaptosomal preparation. The uptake of ^45Ca measured by this procedure is mediated by presynaptic L-type calcium channels, and is sensitive to dihydropyridine, phenylalkylamine, and benzothiazipine Ca antagonists at therapeutically relevant concentrations [Tashjian et al., ibid.]. The adaptation of the aforementioned method involves growing GH4C1 cells in 96-well culture plates, and is designed to provide a rapid and quantitative determination of the potency of various compounds in inhibiting ^45Ca uptake through L-type Ca channels.
GH4 cells, stored in liquid nitrogen, are suspended in 15 ml growth medium (Ham's F-10 medium plus 15% heat-inactivated horse serum and 2.5% heat-inactivated fetal bovine serum). The cells are centrifuged, resuspended, and then added to T-75 flasks containing 12-15 mls Growth Medium, and incubated at 37° C. for approximately 1 week. The cells are them removed from the T75 flask after dissociation from the walls of the flask by treatment for 5 minutes at 37° C. with 1 mg/ml Viocase. The Viocase is decanted, and the cells are resuspended in ˜200 ml of Growth Medium. The cells are then aliquoted (200 μl/well) into each well of several 96 well plates. The cells are then grown under the aforementioned conditions for 3-4 weeks, with replacement of Growth Medium occurring twice per week. Cells are fed growth medium 24 hours before they are employed for ^45Ca uptake determinations.
At the time of the assay, media Is aspirated from each 96-well plate using a manifold designed to allow 50 μL of liquid to remain in each well. Each plate is washed and aspirated twice with a low K^+ buffer solution “LKHBBS” (in mM 5 KCl, 145 NaCl, 10 Hepes, 1 MgCl2, […], 10 glucose, pH 7.4), 200 μl/well. Each plate is incubated for 10 minutes at 37° C., and aspirated as above. To each well of each plate, 50 μl of HBBS containing the drug to be tested in twice the final concentration is added. The plates are incubated for 10 minutes at room temperature. To each well of each plate, 50 μl of either of two solutions are added:
(a) LKHBBS containing 1 μCi of carrier-free ^45Ca, or
(b) HKHBBS (a high K^+ buffer containing 150 mM KCl and no NaCl, but otherwise identical to LKHBBS).
Each plate is then incubated for 5 minutes at room temperature, aspirated as above, and quenched with 200 μl/well of Quench Buffer (Ca-free LKHBBS containing 10 mM Tris-EGTA). Each plate is aspirated and rinsed with Quench Buffer a second time, then carefully aspirated to dryness. To each well of each plate 100 μl of High Safe II scintillation fluid is added. The plates are sealed, shaken, and subjected to scintillation spectrophotometry on a Microbeta 96-well Scintillation Counter (Wallac, Gaithersburg, Md., USA).
Net depolarization-induced ^45Ca uptake was determined for each concentration of each compound tested, as the difference between ^45Ca uptake in HKBBS and LK buffers. Results were plotted as % inhibition of depolarization-induced ^45Ca uptake vs. [compound] for each compound tested.

[3] = biological target: Type II neuronal voltage-activated sodium channels (Rattus norvegicus, UniProt P04775); experiment: cell-based
Chain of Type II neuronal voltage-activated sodium channels (P04775 whole entry): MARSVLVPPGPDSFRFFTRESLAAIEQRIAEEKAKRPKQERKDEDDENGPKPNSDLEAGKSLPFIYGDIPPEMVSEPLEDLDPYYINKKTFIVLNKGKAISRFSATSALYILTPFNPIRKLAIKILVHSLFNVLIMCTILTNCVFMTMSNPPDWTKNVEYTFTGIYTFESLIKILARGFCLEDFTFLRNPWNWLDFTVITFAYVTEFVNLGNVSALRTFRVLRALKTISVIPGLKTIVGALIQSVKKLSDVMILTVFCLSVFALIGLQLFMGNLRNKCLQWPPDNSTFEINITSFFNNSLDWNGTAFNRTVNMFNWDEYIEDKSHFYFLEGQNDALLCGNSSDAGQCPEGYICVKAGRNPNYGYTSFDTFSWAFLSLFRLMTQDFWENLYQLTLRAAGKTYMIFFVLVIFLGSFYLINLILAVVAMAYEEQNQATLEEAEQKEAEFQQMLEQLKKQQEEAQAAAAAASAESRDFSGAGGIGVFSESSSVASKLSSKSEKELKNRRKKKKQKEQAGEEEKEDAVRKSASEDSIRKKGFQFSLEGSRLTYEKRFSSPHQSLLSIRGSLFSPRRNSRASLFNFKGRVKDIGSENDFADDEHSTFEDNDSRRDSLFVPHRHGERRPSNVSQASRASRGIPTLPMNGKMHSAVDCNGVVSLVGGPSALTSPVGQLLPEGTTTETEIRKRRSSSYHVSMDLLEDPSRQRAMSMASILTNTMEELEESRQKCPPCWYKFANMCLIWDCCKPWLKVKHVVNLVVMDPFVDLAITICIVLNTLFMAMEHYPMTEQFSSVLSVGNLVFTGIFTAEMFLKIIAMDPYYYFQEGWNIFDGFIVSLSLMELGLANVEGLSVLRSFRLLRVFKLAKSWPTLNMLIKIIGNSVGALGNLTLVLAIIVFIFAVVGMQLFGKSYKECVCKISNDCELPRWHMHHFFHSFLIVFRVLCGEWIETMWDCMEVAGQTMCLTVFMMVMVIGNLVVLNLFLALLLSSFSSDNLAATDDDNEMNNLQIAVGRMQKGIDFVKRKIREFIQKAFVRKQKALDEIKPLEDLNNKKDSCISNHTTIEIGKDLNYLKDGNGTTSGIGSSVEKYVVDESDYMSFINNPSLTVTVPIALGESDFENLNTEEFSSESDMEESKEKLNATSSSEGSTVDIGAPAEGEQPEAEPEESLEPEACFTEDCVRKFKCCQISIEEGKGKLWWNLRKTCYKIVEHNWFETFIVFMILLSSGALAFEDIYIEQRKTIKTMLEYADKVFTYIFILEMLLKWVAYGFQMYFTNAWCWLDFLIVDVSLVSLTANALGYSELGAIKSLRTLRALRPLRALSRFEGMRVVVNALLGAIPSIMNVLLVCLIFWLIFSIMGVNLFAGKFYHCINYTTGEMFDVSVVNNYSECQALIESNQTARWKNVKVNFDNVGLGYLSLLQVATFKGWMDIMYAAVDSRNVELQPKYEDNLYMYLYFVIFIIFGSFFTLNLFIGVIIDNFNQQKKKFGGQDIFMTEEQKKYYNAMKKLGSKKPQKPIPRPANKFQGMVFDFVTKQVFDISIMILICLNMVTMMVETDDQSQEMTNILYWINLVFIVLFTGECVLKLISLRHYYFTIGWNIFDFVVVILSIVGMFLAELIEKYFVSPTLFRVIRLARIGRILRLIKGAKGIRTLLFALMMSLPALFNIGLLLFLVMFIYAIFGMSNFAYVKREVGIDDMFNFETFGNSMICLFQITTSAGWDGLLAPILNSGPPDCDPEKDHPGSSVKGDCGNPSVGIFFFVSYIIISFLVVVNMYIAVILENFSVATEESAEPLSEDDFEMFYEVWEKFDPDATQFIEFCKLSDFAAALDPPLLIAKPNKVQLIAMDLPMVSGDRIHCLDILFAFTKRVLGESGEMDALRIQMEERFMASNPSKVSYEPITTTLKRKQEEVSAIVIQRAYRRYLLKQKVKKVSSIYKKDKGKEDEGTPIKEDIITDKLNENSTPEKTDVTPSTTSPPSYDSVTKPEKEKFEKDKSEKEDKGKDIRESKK

presynaptic Ca channels = experiment: Inhibition of 45Ca uptake through presynaptic Ca channels in brain synaptosomes; assay type: biochemical, mammalian; details: high K+ depolarization-induced 45Ca uptake, read-out: IC50, block of ^45Ca uptake
Description: Compounds of the invention were tested to determine their ability to inhibit voltage-activated calcium channels in nerve terminals of mammalian brain. Said voltage-activated calcium channels directly control neurotransmitter release (see Nachsen, D. A. et al., J. Gen Physiol., 79:1065-1087 (1982)). The uptake of ^45Ca into brain synaptosomes was performed by an adaptation of the method of Nachsen and Blaustein (J. Physiol., 361:251-258 (1985)), as previously described [Goldin et al., PCT/US92/01050]. The principle of the method involves opening ion permeation through synaptosomal calcium channels by high K^+-induced depolarization of the synaptosomal preparation. The rapid component of ^45Ca uptake measured by this procedure is mediated by presynaptic calcium channels.
Briefly, synaptosomes are prepared by the method of Hajos (Brain Res., 93:485-489 (1975)). Freshly prepared synaptosomes (8 μl) were suspended In low potassium “LK” buffer (containing 3 mM KCl). Test compounds in 8 μl LK were added to synaptosomes to final concentrations ranging from 0.3 μM to 100 μM, and the mixture was preincubated for 5 minutes at room temperature. ^45Ca uptake was then initiated by adding isotope in either LK or in buffer (“HK”) containing high [potassium] (150 mM KCl). After 5 seconds, the ^45Ca uptake was stopped by adding 0.9 ml quench buffer (LK+10 mM EGTA). This solution was then filtered under vacuum and the filters washed with 15 ml of quench buffer.
Washed filters were subjected to scintillation spectrophotometry to determine the extent of ^45Ca uptake. Net depolarization-induced ^45Ca uptake was determined for each concentration of each compound tested, as the difference between ^45Ca uptake in HK and LK buffers. Results were plotted as % inhibition of depolarization-induced ^45Ca uptake vs. [compound] for each compound tested. Representative IC50 for inhibition of depolarization-induced ^45Ca uptake are presented below in the tables (2a-2d) below which together are identified as Table 2.

[4] = 50 μM veratridine-induced release, rat brain synaptosomes
[5] = high K+ depolarization-induced 45Ca uptake, read-out: IC50, block of ^45Ca uptake
[6] = 3 μM compound, 50 μM veratridine-induced release, rat brain synaptosomes
[7] = veratridine (100 μM)-induced, tetrodotoxin-sensitive uptake, CHO cells expressing rat brain Type II Na channels, read-out: IC50, block of ^14C guanidinium uptake

Compound `CCC(C)c1ccc(NC(=N)Nc2ccc(C(C)CC)cc2)cc1` (stereo not shown) (as salt: HCl) [Example 4, N,N′-bis(4-sec-Butylphenyl)guanidine.HCl] has a melting point of 113 to 115 °C.

For `Cl.N=C(NCCCc1ccccc1)Nc1ccc2c3c(cccc13)CC2` [Example 43, N-(5-Acenaphthyl)-N′-(3-phenylpropyl)guanidine.HCl], the “% Inhibition of ^3H-Glu Rel @ 3 μM” value [1] was 60% and the “% Inhibition of ^3H-Glu Rel @ 1 μM (*veratridine-induced glutamate release assay)” value [2, 4] was 43* %.

For `COc1ccc([C@@H]2Sc3ccccc3N(CCN(C)C)C(=O)[C@@H]2OC(C)=O)cc1` [diltiazem, reference compound], the IC50 (L-type Ca channels; read-out: IC50, block of ^45Ca uptake, high K+ depolarization-induced 45Ca uptake) was 19700 nM.

With `N=C(Nc1ccc2c3c(cccc13)CC2)NC(c1ccccc1)c1ccccc1` [Example 3, N-(5-Acenaphthyl)-N′-benzhydrylguanidine.HCl] the “% Inhibition of ^3H-Glu Rel @ 3 μM” value [1] was 53% and the IC50 (L-type Ca channels; [5]) was 2700 nM.

`CCC(C)c1ccc(N(Cc2ccc(C(C)(C)C)cc2)C(=N)N)cc1` (stereo not shown) (as salt: HCl) [Example 1, N-(4-sec-Butylphenyl)-N-(4-tert-butylbenzyl)guanidine.HCl] gave a melting point of 177 to 178 °C.

With `CC(C)c1ccc(CN(C(=N)N)c2ccc3c4c(cccc24)CC3)cc1` [Example 19, N-(5-Acenaphthyl)-N-(4-isopropylbenzyl)guanidine] the melting point was 153 to 155 °C, the IC50 (L-type Ca channels; [5]) was 2100 nM and the “% Inhibition of ^3H-Glu Rel @ 3 μM (*veratridine-induced glutamate release assay)” value [2, 6] was 81* %.

In the case of `Cl.N=C(Nc1ccc(OCc2ccccc2)cc1)Nc1cccc(OCc2ccccc2)c1` [Example 42, N-(3-Benzyloxyphenyl)-N′-(4-benzyloxyphenyl)guanidine.HCl], the “% Inhibition of ^3H-Glu Rel @ 0.3 μM” value ([1]; 0.3 μM compound) is reported as 54%, the “% Inhibition of ^3H-Glu Rel @ 1 μM” value [1] is reported as 90% and the IC50 [3, 7] is reported as 700 nM. For the same compound, the “% Inhibition of ^3H-Glu Rel @ 3 μM (*veratridine-induced glutamate release assay)” value [2, 6] was 60* %.

With `CCCCOc1ccc(N(Cc2ccc(C(C)(C)C)cc2)C(=N)N)cc1.Cl` [Example 24, N-(4-n-Butoxyphenyl)-N-(4-tert-butylbenzyl)guanidine.HCl] the IC50 [3, 7] was 1800 nM and the “% Inhibition of ^3H-Glu Rel @ 1 μM (*veratridine-induced glutamate release assay)” value [2, 4] was 62* %.

With `CC(C)(C)c1ccc(CN(C(=N)N)c2cccc(I)c2)cc1` [Example 48, N-(3-Iodophenyl)-N-(4-tert-butylbenzyl)guanidine.HCl] the IC50 [3] was 400 nM and the “% Inhibition of ^3H-Glu Rel @ 1 μM (*veratridine-induced glutamate release assay)” value [2, 4] was 23* %.

With `CC(C)(C)c1ccc(CN(C(=N)N)c2ccc3c4c(cccc24)CC3)cc1` [Example 2] the “% Inhibition of ^3H-Glu Rel @ 1 μM” value [1] was 52%, the “% Inhibition of ^3H-Glu Rel @ 3 μM” value [1] was 61% and the IC50 (presynaptic Ca channels) was 8100 nM. It also gave an IC50 [3, 7] of 1000 nM and an IC50 (L-type Ca channels; [5]) of 2100 nM.

For `CCC(C)c1ccc(NC(=N)Nc2ccc(C(C)CC)cc2)cc1` (stereo not shown) [Example 4, N,N′-bis(4-sec-Butylphenyl)guanidine.HCl], the “% Inhibition of ^3H-Glu Rel @ 1 μM” value [1] was 52%, the “% Inhibition of ^3H-Glu Rel @ 3 μM” value [1] was 85% and the IC50 (presynaptic Ca channels) was 11200 nM. It also gave an IC50 [3, 7] of 800 nM and an IC50 (L-type Ca channels; [5]) of 2100 nM.

With `CC(C)(C)c1ccc(CN(C(=N)N)c2ccc(Cl)c3ccccc23)cc1` (as salt: HCl) [Example 49, N-(4-Chloro-1-naphthyl)-N-(4-tert-benzyl)guanidine.HCl] the melting point was 115 to 117 °C.

With `Br.N=C(Nc1ccc2c3c(cccc13)-c1ccccc1-2)Nc1ccc2c3c(cccc13)-c1ccccc1-2` [Example 9, N-N′-Bis(3-fluoroanthenyl)guanidine hydrobromide] the IC50 (presynaptic Ca channels) was 7800 nM, the IC50 [3, 7] was 700 nM and the “% Inhibition of ^3H-Glu Rel @ 3 μM (*veratridine-induced glutamate release assay)” value [2] was 17* %.

With `CCC(C)c1ccc(N(C)C(=N)N(C)c2ccc(C(C)CC)cc2)cc1` (stereo not shown) [Example 6] the “% Inhibition of ^3H-Glu Rel @ 1 μM” value [1] was 71%, the “% Inhibition of ^3H-Glu Rel @ 3 μM” value [1] was 92% and the IC50 (presynaptic Ca channels) was 5900 nM. For the same compound, the IC50 [3] was 600 nM and the IC50 (L-type Ca channels; [5]) was 4300 nM.

`CCC(C)c1ccc(N(Cc2ccccc2)C(=N)N)cc1` (stereo not shown) [Example 17, N-(4-sec-Butylphenyl)-N-benzylguanidine] gave a melting point of 65 to 67 °C.

In the case of `CCC(C)c1ccc(N(C)C(=N)N(C)c2ccc(C(C)CC)cc2)cc1` (stereo not shown) (as salt: HCl) [Example 6], the melting point is reported as 65 to 66 °C.

In the case of `CC(C)(C)c1ccc(CN(C(=N)N)c2ccc(Cl)c3ccccc23)cc1` [Example 49, N-(4-Chloro-1-naphthyl)-N-(4-tert-benzyl)guanidine.HCl], the IC50 [3] is reported as 2200 nM and the “% Inhibition of ^3H-Glu Rel @ 1 μM (*veratridine-induced glutamate release assay)” value [2, 4] is reported as 32* %.

In the case of `N=C(Nc1ccc2c3c(cccc13)CC2)NC(c1ccccc1)c1ccccc1` (as salt: HCl) [Example 3, N-(5-Acenaphthyl)-N′-benzhydrylguanidine.HCl], the melting point is reported as 225 to 227 °C.

For `CC(C)(C)c1ccc(CN(C(=N)N)c2cccc(I)c2)cc1` (as salt: HCl) [Example 48, N-(3-Iodophenyl)-N-(4-tert-butylbenzyl)guanidine.HCl], the melting point was 271 to 272 °C.

With `CCC(C)c1ccc(N(C/C=C/c2ccccc2)C(=N)N)cc1.Cl` (stereo not drawn) [Example 23, N-(4-sec-Butylphenyl)-N-(trans-cinnamyl)guanidine.HCl] the “% Inhibition of ^3H-Glu Rel @ 3 μM (*veratridine-induced glutamate release assay)” value [2, 6] was 33* %.

`CCC(C)c1ccc(N2CCCN(c3ccc(C(C)CC)cc3)C2=N)cc1` (stereo not shown) (as salt: HBr) [Example 8, N,N′-Bis-(4-sec-butylphenyl)-2-iminopyrimidazolidine.HBr] showed a melting point of over 250 °C.

For `COc1ccc(NC(=N)Nc2ccc(Cl)c(Cl)c2Cl)c2ccccc12.Cl` [Example 15, N-(4-Methoxy-1-naphthyl)-N′-(2,3,4-trichlorophenyl)guanidine.HCl], the “% Inhibition of ^3H-Glu Rel @ 3 μM” value [1] was 88%, the IC50 (presynaptic Ca channels) was 1700 nM and the IC50 (L-type Ca channels; [5]) was 1700 nM.

With `CCC(C)c1ccc(NC(=N)N(C)c2ccc(C(C)CC)cc2)cc1.Cl` (stereo not shown) [Example 5, N,N′-bis(4-sec-Butylphenyl)-N-methyl guanidine.HCl] the “% Inhibition of ^3H-Glu Rel @ 1 μM (*veratridine-induced glutamate release assay)” value [2, 4] was 68* %.
